The values below come from patent publication US8871179B2, “Method for monitoring blood flow and metabolic uptake in tissue with radiolabeled alkanoic acid” (The General Hospital Corporation, priority 2003, dated 2014).

The conditions of data set [1]: in vivo; cited from earlier work.
Data set [2] is described as follows: Biodistribution of isomers and racemic mixture of labeled 3-methylheptadecanoic acid in rats. In kind it is in vivo. To be noted: rat. As for the experimental part:
The following data compare the biodistribution of 1-[^11C]-3(S)-methylheptadecanoic acid (the ‘S’ isomer) and I-[^11C]-3(R)-methylheptadecanoic acid (the ‘R’ isomer). Also compared is the racemic mixture, 1-[^14C]-3(R,S)-methylheptadecanoic acid, labeled with ^14C. […] Biodistribution was performed in six rats for each compound and time point. The 5-minute distribution data are contained in Table 5, while the 30-minute data are contained in Table 6. These unexpected results imply that during β-oxidation, enoyl-CoA hydratase is stereo-specific and only recognizes the ‘S’ isomer. Further, stereoisomeric purity is important for targeting the MFA to heart tissue.

For data set [3] the following is noted: cited from earlier work.
Data set [4] in a line: Biodistribution of [^18F]-FCPHA in rats (organs excised, gamma counter). To be noted: rat. Format: in vivo, Sprague-Dawley rats. As for the experimental part: Male Sprague-Dawley rats weighing approximately 300-350 grams, were injected without anesthesia with 40 µCi of [^18F]-FCPHA in a total volume of 200 µl. The radiolabeled FA was injected into the tail vein and the rats subsequently sacrificed at 5 minutes and 60 minutes post-injection. The organs were excised and counted in a gamma counter. Accumulation of the FA in various organs in % DPG (dose per gram) is detailed in Table 1.
Bone accumulation of the fluorinated FA measured de-fluorination of the compound and its subsequent accumulation. To confirm imaging resolution, the following ratios were determined at 5 and 60 minutes post-injection (Table 2).

Assay in data set [5]: as above
Format: in vivo, Sprague-Dawley rats.

The nature of data set [6]: PET heart imaging in monkey after intravenous [^18F]-FCPHA. In kind it is in vivo. As for the experimental part: (§1) In FIG. 6, the images are a comparison of [^13N]ammonia (right) and [^18F]FCPHA (left) at 2-8 minutes in a pig.
(§2) The biodistribution of [^18F]-FCPHA was also studied in monkeys.

A short description of data set [7]: Heart imaging in pig after intravenous [^18F]FCPHA. Format: in vivo. As for the experimental part: as §1, §2
Setting [8] is: normal myocardium, biexponential clearance.

As to `CC(CCCCCCCCCCCCc1ccc(I)cc1)CC(=O)O` (racemic) [BMIPP, 15-(p-iodophenyl)-3-(R,S)-methyl-pentadecanoic acid], the Myocardial retention in data set [1] is 30 to 45 min.
Consider `CCCCCCCCCCCCCCC(C)C[14C](=O)O` (racemic) [R,S racemic mixture, 1-[^14C]-3(R,S)-methylheptadecanoic acid], for which, in data set [2] (5 minutes post-injection), the “Biodistribution, Blood” value is recorded as 0.23 ± 0.02 % DPE; the “Biodistribution, Heart” value worked out at 2.20 ± 0.95 % DPE; the “Biodistribution, Left Ventricle” value stood at 2.87 ± 1.01 % DPE; the “Biodistribution, Right Ventricle” value came to 2.05 ± 0.54 % DPE. Moreover, in data set [2] (5 minutes post-injection), the Heart-to-blood is 9.56, the Left ventricle-to-blood is 12.48 and the Right ventricle-to-blood is on record as 8.90. In data set [2] (30 minutes post-injection), the “Biodistribution, Blood” value was 0.20 ± 0.02 % DPE; the “Biodistribution, Heart” value was 2.10 ± 0.41 % DPE; the “Biodistribution, Left Ventricle” value is given as 2.81 ± 0.35 % DPE; the “Biodistribution, Right Ventricle” value turned out to be 2.10 ± 0.41 % DPE. In data set [2] (30 minutes post-injection), the Heart-to-blood came out at 10.10, the Left ventricle-to-blood stood at 12.48 and the Right ventricle-to-blood is reported as 10.05.
Consider `CCCCCCCCCCCCCC[C@H](C)C[11C](=O)O` (single isomer, unassigned; isomer 1) [S-isomer], for which, in data set [2] (5 minutes post-injection), the “Biodistribution, Blood” value is 0.18 ± 0.01 % DPE; the “Biodistribution, Heart” value came to 3.44 ± 0.54 % DPE; the “Biodistribution, Left Ventricle” value was 4.05 ± 0.77 % DPE; the “Biodistribution, Right Ventricle” value is recorded as 3.40 ± 0.82 % DPE. Moreover, in data set [2] (5 minutes post-injection), the Heart-to-blood was 19.00, the Left ventricle-to-blood was 22.00 and the Right ventricle-to-blood came to 18.88. In data set [2] (30 minutes post-injection), the “Biodistribution, Blood” value is recorded as 0.21 ± 0.04 % DPE; the “Biodistribution, Heart” value is given as 3.08 ± 0.30 % DPE; the “Biodistribution, Left Ventricle” value came out at 3.81 ± 0.37 % DPE; the “Biodistribution, Right Ventricle” value was determined as 2.82 ± 0.46 % DPE. Besides, in data set [2] (30 minutes post-injection), the Heart-to-blood is recorded as 14.66, the Left ventricle-to-blood is given as 18.14 and the Right ventricle-to-blood was determined as 18.88.
Regarding `CCCCCCCCCCCCCC[C@@H](C)C[11C](=O)O` (single isomer, unassigned; isomer i) [R-isomer], in data set [2] (5 minutes post-injection), the “Biodistribution, Blood” value was determined as 0.30 ± 0.04 % DPE; the “Biodistribution, Heart” value came out at 1.40 ± 0.23 % DPE; the “Biodistribution, Left Ventricle” value was 1.50 ± 0.50 % DPE; the “Biodistribution, Right Ventricle” value came to 0.94 ± 0.46 % DPE. For the same compound, in data set [2] (5 minutes post-injection), the Heart-to-blood was determined as 4.66, the Left ventricle-to-blood stood at 5.00 and the Right ventricle-to-blood was determined as 3.13. Moreover, in data set [2] (30 minutes post-injection), the “Biodistribution, Blood” value was 0.23 ± 0.03 % DPE; the “Biodistribution, Heart” value amounted to 1.07 ± 0.16 % DPE; the “Biodistribution, Left Ventricle” value is reported as 1.33 ± 0.25 % DPE; the “Biodistribution, Right Ventricle” value is recorded as 0.93 ± 0.35 % DPE. In addition, in data set [2] (30 minutes post-injection), the Heart-to-blood worked out at 5.95, the Left ventricle-to-blood is given as 5.78 and the Right ventricle-to-blood turned out to be 4.00.
With `CC(C)(CCCCCCCCCCCCc1ccc(I)cc1)CC(=O)O` [DMIPP], the Myocardial clearance in data set [1] was 6 to 7 h.
For the compound `O=C(O)CCCCCCCCCCCCCCc1ccc(I)cc1` [IPPA, 15-(p-iodophenyl)pentadecanoic acid], the “Blood clearance t½ (elimination)” value in data set [3] (in vivo) was 5 min. In addition, in data set [3] (setting [8]), the “Myocardial clearance, fast component t½ (flow)” value is 3.5 min and the “Myocardial clearance, slow component t½ (metabolism)” value was 130 min.
Turning to `CCCCCCCCC([18F])CCCCC1CC1CC(=O)O` (stereo not drawn) [[^18F]-FCPHA, [^18F]-9-fluoro-3,4-cyclopropyl-heptadecanoic acid], in data set [4] (5 min post-injection), the “Accumulation in Adrenal” value is 0.22 ± 0.061 % DPG, the “Accumulation in Blood” value came to 0.064 ± 0.008 % DPG, the “Accumulation in Bone” value worked out at 0.16 ± 0.03 % DPG and the “Accumulation in Brain” value is on record as 0.06 ± 0.01 % DPG. For the same compound, in data set [4] (5 min post-injection), the “Accumulation in Gastrointestinal Tract” value is listed as 0.19 ± 0.040 % DPG, the “Accumulation in Kidney” value is listed as 0.41 ± 0.097 % DPG, the “Accumulation in Liver” value is 1.34 ± 0.26 % DPG and the “Accumulation in Lung” value is 0.47 ± 0.12 % DPG. Besides, in data set [4] (5 min post-injection), the “Accumulation in Muscle” value is recorded as 0.25 ± 0.009 % DPG, the “Accumulation in Spleen” value is 0.55 ± 0.30 % DPG, the “Accumulation in Stomach” value was 0.12 ± 0.067 % DPG and the “Accumulation in Testes” value was 0.020 ± 0.003 % DPG. The “Accumulation in Heart” value in data set [4] (5 min post-injection, tail vein) was 1.55 ± 0.66 % DPG. Besides, in data set [4] (60 min post-injection), the “Accumulation in Adrenal” value is 0.30 ± 0.16 5 DPG, the “Accumulation in Blood” value is listed as 0.080 ± 0.019 5 DPG, the “Accumulation in Bone” value is 0.70 ± 0.39 5 DPG and the “Accumulation in Brain” value is on record as 0.05 ± 0.02 5 DPG. Moreover, in data set [4] (60 min post-injection), the “Accumulation in Gastrointestinal Tract” value is listed as 0.24 ± 0.039 5 DPG, the “Accumulation in Heart” value is listed as 1.43 ± 0.14 5 DPG, the “Accumulation in Kidney” value is 0.34 ± 0.08 5 DPG and the “Accumulation in Liver” value was 0.87 ± 0.15 5 DPG. Besides, in data set [4] (60 min post-injection), the “Accumulation in Lung” value is on record as 0.33 ± 0.16 5 DPG, the “Accumulation in Muscle” value is listed as 0.097 ± 0.075 5 DPG, the “Accumulation in Spleen” value was 0.34 ± 0.085 5 DPG and the “Accumulation in Stomach” value is reported as 0.15 ± 0.038 5 DPG. Further, the “Accumulation in Testes” value in data set [4] (60 min post-injection) is on record as 0.011 ± 0.004 5 DPG. Also, in data set [4] (at 5 minutes post-injection), the Heart-to-blood ratio is on record as 25.8 and the Heart-to-lung ratio came to 3.3. For the same compound, in data set [4] (at 60 minutes post-injection), the Heart-to-blood ratio is 20.4 and the Heart-to-lung ratio is reported as 4.6. Further, in data set [5], the “Subcellular distribution in the rat heart” value was “found in the mitochondria”. The Blood activity clearance entry in data set [6] (monkey) is “fast clearance”. In data set [6] (monkey heart, after injection (FIG. 3)), the “Heart activity as a function of time” value is recorded as “initial spike of activity corresponding to blood flow followed by a plateau after 10 minutes”. The “Myocardial trapping visualized by PET” value in data set [6] (monkey, sixty minutes after intravenous injection of 5 mCi) was “myocardial trapping in both left and right ventricles”. In addition, the “Myocardial activity retention in late images” value in data set [7] (late images at 60 minutes) was “high myocardial activity retention”. The Blood activity clearance result in data set [7] (pig) is “fast clearance”. Further, the “Heart activity as a function of time” value in data set [7] (pig heart, after injection) was “initial spike of activity corresponding to blood flow followed by a plateau after 10 minutes”.
